# Literature values as cited in patent publication US5831002A, “Antitumor peptides” (BASF Aktiengesellschaft, priority 1995, dated 1998).
# Conditions: background, literature; cited from earlier work
substance,measurement,value
Dolastatin-10,cell growth inhibitory activity,potent cell growth inhibitory activity
Dolastatin-15,cell growth inhibitory activity,potent cell growth inhibitory activity
